Measurements from patent publication US12319676B2, “Substituted amide compounds useful as farnesoid X receptor modulators” (BRISTOL-MYERS SQUIBB COMPANY, priority 2019, dated 2025).

target: T1, human FXR (Homo sapiens, UniProt Q96RI1); assay: transient human FXR/Gal4-luciferase reporter assay; format: cell-based; settings: Gal4-hFXR fusion construct, luciferase reporter in HEK293 cells; overnight incubation; response as percentage of 8 μM GW-4064 control
T1 construct: expressed in transfected cells; host or cells: HEK293 cells stably carrying a 5xGal4 response element-luciferase reporter, transiently transfected with pcDNA3.1-Gal4-FXR
T1 sequence (Q96RI1 262-486 limits assumed): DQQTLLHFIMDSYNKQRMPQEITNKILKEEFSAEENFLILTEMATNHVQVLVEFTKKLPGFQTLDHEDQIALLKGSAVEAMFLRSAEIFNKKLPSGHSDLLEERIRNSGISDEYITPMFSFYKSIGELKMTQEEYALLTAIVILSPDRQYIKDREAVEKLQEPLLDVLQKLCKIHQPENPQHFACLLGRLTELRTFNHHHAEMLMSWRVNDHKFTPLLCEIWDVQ
Experimental: The exemplified compounds of the present invention were tested in the transient human FXR/Gal4-luciferase reporter assay, and assay results were reported in Table 1 and Examples 1 to 3 together with other analytical data. A Gal4-hFXR fusion construct reporter system was used as the primary assay to characterize compound activity. A construct including 5 copies of the Gal4 promoter response element upstream of a firefly luciferase reporter cDNA was stably expressed in HEK293 cells. This reporter cell line was maintained in Dulbecco's Modified Eagle's medium (DMEM; Gibco) supplemented with 1% penicillin-streptomycin (P/S) solution, 500 μg/mL Zeocin and 10% charcoal/dextran-treated fetal bovine serum (cs-FBS) at 37° C. in a humidified 5% CO2 atmosphere. Another plasmid was constructed in which the human cytomegalovirus promoter in the pcDNA3.1 vector directs the expression of the cDNA encoding a fusion protein comprised of the DNA binding domain from the Gal4 transcription factor fused to the ligand binding domain from human FXR. The day prior to transfection, the reporter cells in culture are detached from the plate with trypsin and plated into a T75 flask at a sufficient density to achieve approximately 90% confluence the next morning. The transfection reagents are prepared by separately diluting 25 μg of the pcDNA3.1-Gal4-FXR plasmid into 1.87 mL of Opti-MEM (Thermo-Fisher), and 40 μL of Lipofectamine 2000 (Thermo-Fisher) into 1.87 mL of Opti-MEM, and then adding the diluted DNA solution into the diluted Lipofectamine 2000 solution and incubating at room temperature for 15-20 minutes. The mixture is further diluted with 10 mL of a solution comprised of DMEM, 10% cs-FBS, and 1% P/S immediately prior to transferring to the cells. The maintenance culture media is aspirated from the cells and the final transfection mixture is added before the cells are incubated overnight at 37° C. in a humidified 5% CO2 atmosphere. This protocol can be scaled up, and the transiently transfected cells can be cryopreserved in an assay-ready format. For compound testing, 100 nL of the compounds (serial dilutions in DMSO) are dispensed with an Echo acoustic dispenser (Labcyte) into the wells of a Corning/Costar clear bottom 384-well white plate. The transfected cells are harvested, counted, and diluted such that 10-25,000 cells in 25 μL are plated into each well of the 384-well compound assay plate. The compound-treated cells are incubated overnight at 37° C. in a humidified 5% CO2 atmosphere. The next morning 25 μL of Steady-Glo (Promega) are added to each well of the plate, the mixture is incubated for 15 min. with shaking, and luminescence is measured on an Envision (Perkin Elmer) plate reader. Background counts from cells treated with DMSO alone are subtracted from all raw counts, and the corrected values are converted to a percentage of the control response attained with 8 μM GW-4064.

Row | EC50 [nM] | SMILES
1 | 4000 | CC(F)(F)c1nc(C23CCC(CN(C(=O)C4CCC(F)(F)CC4)c4cccc(S(=O)(=O)NC5CC5)c4)(CC2)CC3)no1 [Example 20, N-(3-(N-cyclopropylsulfamoyl)phenyl)-N-((4-(5-(1,1-difluoroethyl)-1,2,4-oxadiazol-3-yl)bicyclo[2.2.2]octan-1-yl)methyl)-4,4-difluorocyclohexane-1-carboxamide]
2 | 4000 | CNS(=O)(=O)c1cccc(N(CC23CCC(c4noc(C(C)(F)F)n4)(CC2)CC3)C(=O)C23CC(F)(C2)C3)c1 [Example 21, N-((4-(5-(1,1-difluoroethyl)-1,2,4-oxadiazol-3-yl)bicyclo[2.2.2]octan-1-yl)methyl)-3-fluoro-N-(3-(N-methylsulfamoyl)phenyl)bicyclo[1.1.1]pentane-1-carboxamide]
3 | 4000 | CNS(=O)(=O)c1cccc(N(CC23CCC(c4noc(C(C)(F)F)n4)(CC2)CC3)C(=O)[C@H]2C[C@](O)(C(F)(F)F)C2)c1 [Example 22, (1S,3S)-N-((4-(5-(1,1-difluoroethyl)-1,2,4-oxadiazol-3-yl)bicyclo[2.2.2]octan-1-yl)methyl)-3-hydroxy-N-(3-(N-methylsulfamoyl)phenyl)-3-(trifluoromethyl)cyclobutane-1-carboxamide]
4 | 4000 | CNS(=O)(=O)c1cccc(N(CC23CCC(c4noc(C(C)(F)F)n4)(CC2)CC3)C(=O)C2CCC(F)(F)CC2)c1 [Example 23, N-((4-(5-(1,1-difluoroethyl)-1,2,4-oxadiazol-3-yl)bicyclo[2.2.2]octan-1-yl)methyl)-4,4-difluoro-N-(3-(N-methylsulfamoyl)phenyl)cyclohexane-1-carboxamide]
5 | 4000 | CC(F)(F)c1nc(C23CCC(CN(C(=O)C4CCC(F)(F)CC4)c4cccc(P(C)(C)=O)c4)(CC2)CC3)no1 [Example 24, N-((4-(5-(1,1-difluoroethyl)-1,2,4-oxadiazol-3-yl)bicyclo[2.2.2]octan-1-yl)methyl)-N-(3-(dimethylphosphoryl)phenyl)-4,4-difluorocyclohexane-1-carboxamide]
6 | 4000 | CC(F)(F)c1nc(C23CCC(CN(C(=O)C45CC(F)(C4)C5)c4cccc(P(C)(C)=O)c4)(CC2)CC3)no1 [Example 25, N-((4-(5-(1,1-difluoroethyl)-1,2,4-oxadiazol-3-yl)bicyclo[2.2.2]octan-1-yl)methyl)-N-(3-(dimethylphosphoryl)phenyl)-3-fluorobicyclo[1.1.1]pentane-1-carboxamide]
7 | 4000 | CC(F)(F)c1nc(C23CCC(CN(c4cccc(P(C)(C)=O)c4)C(=O)[C@H]4C[C@](O)(C(F)(F)F)C4)(CC2)CC3)no1 [Example 26, (1S,3S)-N-((4-(5-(1,1-difluoroethyl)-1,2,4-oxadiazol-3-yl)bicyclo[2.2.2]octan-1-yl)methyl)-N-(3-(dimethylphosphoryl)phenyl)-3-hydroxy-3-(trifluoromethyl)cyclobutane-1-carboxamide]
8 | 72 | COC(=O)c1cccc(N(CC23CCC(c4noc(C(C)(F)F)n4)(CC2)CC3)C(=O)C23CC(F)(C2)C3)c1 [Example 27, Methyl 3-(N-((4-(5-(1,1-difluoroethyl)-1,2,4-oxadiazol-3-yl)bicyclo[2.2.2]octan-1-yl)methyl)-3-fluorobicyclo[1.1.1]pentane-1-carboxamido)benzoate]
9 | 210 | CCNC(=O)c1cccc(N(CC23CCC(c4noc(C(C)(F)F)n4)(CC2)CC3)C(=O)C23CC(F)(C2)C3)c1 [Example 28, N-((4-(5-(1,1-difluoroethyl)-1,2,4-oxadiazol-3-yl)bicyclo[2.2.2]octan-1-yl)methyl)-N-(3-(ethylcarbamoyl)phenyl)-3-fluorobicyclo[1.1.1]pentane-1-carboxamide]
10 | 902 | CC(F)(F)c1nc(C23CCC(CN(C(=O)C45CC(F)(C4)C5)c4cccc(C(N)=O)c4)(CC2)CC3)no1 [Example 29, N-(3-carbamoylphenyl)-N-((4-(5-(1,1-difluoroethyl)-1,2,4-oxadiazol-3-yl)bicyclo[2.2.2]octan-1-yl)methyl)-3-fluorobicyclo[1.1.1]pentane-1-carboxamide]
11 | 150 | CC(F)(F)c1nc(C23CCC(CN(C(=O)N[C@H]4CC[C@](C)(O)CC4)c4cccc(Br)c4)(CC2)CC3)no1 [Example 30, 1-(3-bromophenyl)-1-((4-(5-(1,1-difluoroethyl)-1,2,4-oxadiazol-3-yl)bicyclo[2.2.2]octan-1-yl)methyl)-3-((1R,4R)-4-hydroxy-4-methylcyclohexyl)urea]
12 | 62 | CC(C)(C)OC(=O)Nc1cccc(N(CC23CCC(c4noc(C(C)(F)F)n4)(CC2)CC3)C(=O)C23CC(F)(C2)C3)c1 [Example 32, Tert-butyl (3-(N-((4-(5-(1,1-difluoroethyl)-1,2,4-oxadiazol-3-yl)bicyclo[2.2.2]octan-1-yl)methyl)-3-fluorobicyclo[1.1.1]pentane-1-carboxamido)phenyl)carbamate]
13 | 13 | CC(F)(F)c1nc(C23CCC(CN(C(=O)C45CC(F)(C4)C5)c4cccc(Br)c4)(CC2)CC3)no1 [Example 33, N-(3-bromophenyl)-N-((4-(5-(1,1-difluoroethyl)-1,2,4-oxadiazol-3-yl)bicyclo[2.2.2]octan-1-yl)methyl)-3-fluorobicyclo[1.1.1]pentane-1-carboxamide]
14 | 20 | O=C(N(CC12CCC(c3noc(C4(F)CC4)n3)(CC1)CC2)c1cccc(Br)c1)C12CC(F)(C1)C2 [Example 34, N-(3-bromophenyl)-3-fluoro-N-((4-(5-(1-fluorocyclopropyl)-1,2,4-oxadiazol-3-yl)bicyclo[2.2.2]octan-1-yl)methyl)bicyclo[1.1.1]pentane-1-carboxamide]
15 | 42 | O=C(N(CC12CCC(c3noc(C(F)(F)F)n3)(CC1)CC2)c1cccc(Br)c1)C12CC(F)(C1)C2 [Example 35, N-(3-bromophenyl)-3-fluoro-N-((4-(5-(trifluoromethyl)-1,2,4-oxadiazol-3-yl)bicyclo[2.2.2]octan-1-yl)methyl)bicyclo[1.1.1]pentane-1-carboxamide]
16 | 135 | CC(C)(C)c1noc(C23CCC(CN(c4cccc(Br)c4)C(=O)[C@H]4C[C@](O)(C(F)(F)F)C4)(CC2)CC3)n1 [Example 36, (1S,3S)—N-(3-bromophenyl)-N-((4-(3-(tert-butyl)-1,2,4-oxadiazol-5-yl)bicyclo[2.2.2]octan-1-yl)methyl)-3-hydroxy-3-(trifluoromethyl)cyclobutane-1-carboxamide]
17 | 1080 | CC(C)(C)c1noc(C23CCC(CN(C(=O)C45CC(F)(C4)C5)c4ccc(Cl)c(Br)c4)(CC2)CC3)n1 [Example 37, N-(3-bromo-4-chlorophenyl)-N-((4-(3-(tert-butyl)-1,2,4-oxadiazol-5-yl)bicyclo[2.2.2]octan-1-yl)methyl)-3-fluorobicyclo[1.1.1]pentane-1-carboxamide]
18 | 142 | CC(C)(C)c1noc(C23CCC(CN(C(=O)C45CC(F)(C4)C5)c4cccc(C#N)c4)(CC2)CC3)n1 [Example 38, N-((4-(3-(tert-butyl)-1,2,4-oxadiazol-5-yl)bicyclo[2.2.2]octan-1-yl)methyl)-N-(3-cyanophenyl)-3-fluorobicyclo[1.1.1]pentane-1-carboxamide]
19 | 568 | CC(C)(C)c1noc(C23CCC(CN(c4cccc(C#N)c4)C(=O)[C@H]4C[C@](O)(C(F)(F)F)C4)(CC2)CC3)n1 [Example 39, (1S,3S)-N-((4-(3-(tert-butyl)-1,2,4-oxadiazol-5-yl)bicyclo[2.2.2]octan-1-yl)methyl)-N-(3-cyanophenyl)-3-hydroxy-3-(trifluoromethyl)cyclobutane-1-carboxamide]
20 | 1260 | CC(C)(C)c1noc(C23CCC(CN(c4cccc(C#N)c4)C(=O)[C@H]4C[C@@](C)(O)C4)(CC2)CC3)n1 [Example 40, (1S,3S)-N-((4-(3-(tert-butyl)-1,2,4-oxadiazol-5-yl)bicyclo[2.2.2]octan-1-yl)methyl)-N-(3-cyanophenyl)-3-hydroxy-3-methylcyclobutane-1-carboxamide]
